Experimental data: patent US20260191835A1, “COMBINATIONS COMPRISING A MENIN-MLL INHIBITOR AND AT LEAST ONE OTHER THERAPEUTIC AGENT” (JANSSEN PHARMACEUTICA NV, priority 2022, published 2026)

System: MOLM-13 tumors
Experiment: Efficacy (survival) in disseminated MOLM-13 (KMT2A-rearranged) model in NSG mice
Type: in vivo
Conditions: NSG mice bearing established MOLM-13 tumors, vs vehicle; Azacitidine 2 mg/kg ip QD × 7; Compound 51 2 mg/kg po QD × 28; n = 10
Experimental: 4) Efficacy of Menin-MLL Inhibitor in Combination with Azacitidine in MOLM-13 (KMT2A-Rearranged) Model in NSG Mice
Compound 51 was formulated in purified pyrogen-free deionized water, pH 4.0 and prepared to reach a total volume of 8 mL/kg. Doses were adjusted by individual body weight each day. Working stocks of Compound 51 were prepared once per week for each study and stored at 25° C.
Female NSG (NOD.Cg-Prkdc^scid Il2rg^tm1Wjl/SzJ) mice were used when they were approximately 6 to 8 weeks of age and weighed approximately 25 g. All animals could acclimate and recover from any shipping-related stress for a minimum of 7 days prior to experimental use. […]
Animals were monitored daily for clinical signs related to either compound toxicity or tumor burden (i.e., hind limb paralysis, lethargy, etc.).
For survival assessment, results were plotted as the percentage survival against days post tumor implant. […] Median survival was determined utilizing Kaplan-Meier survival analysis. The percent increased life span (ILS) was calculated as: ((median survival day of treated group−median survival day of control group)/median survival day of control group)×100. […]
Survival and body weight data were graphically represented utilizing Prism (Version 9). Statistical significance for body weights was evaluated as described above. […]

CC(=O)N1CCC(CN2CC[C@@H](Cc3cn(-c4ccc(F)cc4C(=O)N(C)C(C)C)c4cncc(C)c34)C2)CC1 [Compound 51]
% ILS (increased life span): *5%
